Test results published in the supplement of paper PMC10307832.

Tests used:
Assay in all cases: relative viability (nuclei count vs DMSO), 5 days (fraction); higher = more cells survive
[1] = compound: CC(C)(C)c1nc(-c2cccc(NS(=O)(=O)c3c(F)cccc3F)c2F)c(-c2ccnc(N)n2)s1 [Dabrafenib] + C[C@@H](Oc1cc(-c2cnn(C3CCNCC3)c2)cnc1N)c1c(Cl)ccc(F)c1Cl [Crizotinib] (partner 1 µM)
Outline: (§1)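 Lung cancer cell lines in 1536-well plates were dosed by pin tool the day after seeding, either with one drug alone or with a fixed anchor-drug dose plus five library-drug doses (not always all listed) in √10 steps. After 5 days, cells were fixed and their nuclei stained in one step (final 0.05% Triton X-100, 1% formaldehyde, 1 ug/ml Hoechst), then counted on 4× images. Relative viability is the nuclei count in treated wells divided by that in vehicle wells. Values are medians of duplicate plates.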

[2] = compound: CC(C)(C)c1nc(-c2cccc(NS(=O)(=O)c3c(F)cccc3F)c2F)c(-c2ccnc(N)n2)s1 [Dabrafenib] + C[C@]1(O)C[C@@H](c2nc(-c3ccc4ccc(-c5ccccc5)nc4c3)c3c(N)nccn32)C1 [Linsitinib] (partner 1 µM)
Outline: as §1

[3] = compound: NC(=O)c1ccc(N(C(N)=O)c2c(F)cccc2F)nc1-c1ccc(F)cc1F [VX-702] + CC(=O)c1c(C)c2cnc(Nc3ccc(N4CCNCC4)cn3)nc2n(C2CCCC2)c1=O [Palbociclib] (partner 0.5 µM)
Outline: as §1

[4] = compound: NC(=O)c1ccc(N(C(N)=O)c2c(F)cccc2F)nc1-c1ccc(F)cc1F [VX-702] + Nc1ncn([C@H]2C[C@H](O)[C@@H](CO)O2)c(=O)n1 [Decitabine] (partner 2 µM)
Outline: as §1

Cell Line	relative viability ([1]; first compound 0.003 µM)	relative viability ([1]; first compound 0.009487 µM)	relative viability ([1]; first compound 0.03 µM)	relative viability ([1]; first compound 0.09487 µM)	relative viability ([1]; first compound 0.3 µM)	relative viability ([2]; first compound 0.003 µM)	relative viability ([2]; first compound 0.009487 µM)	relative viability ([2]; first compound 0.03 µM)	relative viability ([2]; first compound 0.09487 µM)	relative viability ([2]; first compound 0.3 µM)	relative viability ([3]; first compound 0.02 µM)	relative viability ([3]; first compound 0.2 µM)	relative viability ([3]; first compound 0.6325 µM)	relative viability ([3]; first compound 2 µM)	relative viability ([4]; first compound 0.02 µM)	relative viability ([4]; first compound 0.2 µM)	relative viability ([4]; first compound 0.6325 µM)	relative viability ([4]; first compound 2 µM)
NCI-H3122	0.31	0.272	0.274	0.259	0.361	0.943	1.02	1.01	1.01	1.04	0.243	0.19	0.184	0.215	0.435	0.371	0.417	0.435
PC-14	0.938	0.867	0.878	0.974	0.982	0.956	1.03	0.957	0.975	0.984	0.519	0.595	0.561	0.732	0.199	0.261	0.221	0.218
NCI-H1915	0.994	0.893	0.721	0.752	0.731	1.11	1.14	1.08	1.02	0.964	0.549	0.499	0.526	0.546	0.275	0.284	0.258	0.268
HCC-15	0.906	0.881	0.832	0.75	0.827	0.851	0.996	0.917	0.821	0.951	0.732	0.639	0.724	0.491	0.656	0.586	0.627	0.647
LC-2-ad	0.42	0.398	0.389	0.426	0.447	0.93	0.768	0.802	0.764	0.851	0.496	0.451	0.525	0.478	0.849	0.807	0.821	0.776
NCI-H520	0.756	0.752	0.732	0.582	0.664	1.01	0.93	0.741	0.853	1.05	0.229	0.275	0.191	0.231	0.571	0.513	0.444	0.418
LOU-NH91		0.759	0.717	0.672	0.757		1.15	0.93	0.91	0.944	0.554	0.532	0.544	0.536	0.837	0.832	0.815	0.766
NCI-H1355		1.05	0.927		1.03		0.858	0.682		0.823	0.411	0.424	0.441	0.404	0.348	0.33	0.366	0.318
LCLC-97TM1		0.325	0.406		0.287		0.18	0.187		0.192	0.192	0.23	0.195	0.3	0.241	0.232	0.232	0.228
LCLC-103H	1	1.13	0.935	1.17	1.06	1.04	1.08	0.84	1.13	1.09	0.459	0.498	0.439	0.434	0.733	0.735	0.685	0.746
NCI-H1792		0.974	0.891	0.833	0.873		0.599	0.485	0.528	0.394	0.614	0.587	0.653	0.546	0.555	0.614	0.491	0.532
LK-2	0.211	0.223		0.254	0.197	0.587	0.875	0.225	0.381	0.53	0.533	0.618	0.567	0.614	0.26	0.329	0.218	0.318
RERF-LC-KJ	0.845	0.791	0.769	0.779	0.846	0.876	0.989	0.871	0.83	1.01	1	1.57	1.14	1.19	0.762	0.759	0.66	0.685
LU99A	0.585	0.525	0.466	0.562	0.484	0.542	0.532	0.484	0.476	0.476	0.407	0.387	0.389	0.34	0.93	0.869	0.93	0.872
SK-MES-1	0.919	0.985	1.04	0.912	0.962	1.07	1.04	1.06	1.04	1.12	0.334	0.312	0.293	0.314	0.387	0.388	0.308	0.297
NCI-H322M		1.09		0.876	0.941		1.02		0.874	0.895	0.458	0.48	0.489	0.449	0.67	0.668	0.765	0.745
NCI-H358		0.662	0.553	0.631	0.476		1.03	0.705	0.813	0.776	0.127	0.141	0.134	0.142	0.204	0.333	0.244	0.223
EMC-BAC-2	0.859	0.749	0.678	0.672	0.828	0.773	0.825	0.616	0.838	0.851	0.5	0.489	0.501	0.481	0.969	0.962	0.944	0.885
HCC-78		0.403	0.278	0.329	0.362		0.694	0.442	0.45	0.628	0.493	0.486	0.513	0.487	0.744	0.669	0.715	0.665

Cell Line	relative viability ([1]; first compound 0.003 µM)	relative viability ([1]; first compound 0.009487 µM)	relative viability ([1]; first compound 0.03 µM)	relative viability ([1]; first compound 0.09487 µM)	relative viability ([1]; first compound 0.3 µM)	relative viability ([2]; first compound 0.003 µM)	relative viability ([2]; first compound 0.009487 µM)	relative viability ([2]; first compound 0.03 µM)	relative viability ([2]; first compound 0.09487 µM)	relative viability ([2]; first compound 0.3 µM)	relative viability ([3]; first compound 0.02 µM)	relative viability ([3]; first compound 0.2 µM)	relative viability ([3]; first compound 0.6325 µM)	relative viability ([3]; first compound 2 µM)	relative viability ([4]; first compound 0.02 µM)	relative viability ([4]; first compound 0.2 µM)	relative viability ([4]; first compound 0.6325 µM)	relative viability ([4]; first compound 2 µM)
NCI-H2085	0.97	0.881	0.838	0.919	0.873	0.827	0.857	0.944	0.908	0.845	0.507	0.46	0.506	0.516	0.568	0.575	0.627	0.524
NCI-H441		0.746	0.694	0.593	0.697		0.48	0.54	0.32	0.383	0.19	0.235	0.204	0.162	0.238	0.258	0.251	0.212
NCI-H1975	0.967	0.968	0.881	0.938	0.87	1.06	1.04	0.889	0.995	0.905	0.497	0.446	0.518	0.624	0.367	0.35	0.344	0.362
COR-L23	0.644	0.627	0.633	0.607	0.55	0.997	0.974	0.843	0.886	0.883	0.271	0.312	0.323	0.341	0.518	0.521	0.435	0.525
NCI-H460	0.865	0.97	0.892	0.842	0.899	0.84	0.952	0.68	0.757	0.826	0.187	0.156	0.21	0.118	0.522	0.494	0.599	0.469
NCI-H838	0.858	0.905	0.759	0.829	0.979	0.994	1.04	0.95	0.97	1.08	0.225	0.214	0.198	0.227	0.455	0.471	0.429	0.534
NCI-H2087	0.821	0.788	0.715	0.736	0.675	0.979	0.862	0.779	0.805	0.638	0.203	0.228	0.214	0.225	0.288	0.242	0.254	0.294
HCC-827	0.873	0.945	0.864	0.696	0.942	0.905	0.964	0.96	0.998	0.974	0.452	0.462	0.446	0.316	0.295	0.31	0.337	0.189
NCI-H1755	0.896	0.89	0.648	0.824	0.884	0.917	0.984	0.887	0.975	0.99	0.494	0.388	0.453	0.422	0.699	0.732	0.703	0.797
SK-LU-1	0.742	0.989	0.769	0.778	0.891	0.799	1	0.813	0.968	0.833	0.38	0.355	0.382	0.395	0.625	0.61	0.653	0.702
NCI-H2347	0.441	0.698	0.67	0.674	0.62	0.675	0.965	1.08	1.03	0.942	0.455	0.473	0.466	0.476	0.643	0.606	0.683	0.639
NCI-H2023	0.745	0.651	0.651	0.876	0.802	0.639	0.667	0.595	0.715	0.792	0.381	0.347	0.404	0.436	0.23	0.219	0.211	0.231
NCI-H1944	1.13	1.09	1.05	0.971	1.03	1.17	1.28	1.06	1.18	1.14	0.303	0.326	0.337	0.32	0.431	0.437	0.46	0.431
NCI-H2126	1.01	1.02	0.986	1.01	1.01	0.698	0.725	0.681	0.757	0.715	0.365	0.323	0.341	0.35	0.547	0.567	0.566	0.595
SW 1573	0.802	0.94	0.697	0.755	0.782	0.827	0.844	0.722	0.792	0.821	0.422	0.395	0.32	0.318	0.518	0.434	0.412	0.437
EPLC-272H		1.17	0.784	0.976	0.83		1.36	1.02	0.939	0.918	0.312	0.343	0.316	0.311	0.353	0.373	0.374	0.403
NCI-H1651	0.85	0.875	0.859	0.785	0.786	0.962	1.01	0.833	0.971	0.989	0.503	0.494	0.502	0.56	0.571	0.573	0.649	0.615
NCI-H23		0.603	0.541	0.421	0.495		0.67	0.553	0.645	0.547	0.492	0.443	0.544	0.559	0.322	0.35	0.321	0.317
